Test: xn = mol fraction of the nth substance listed

O=[N+]([O-])[O-].O=[N+]([O-])[O-].[Ba+2] + N
293.15 K, 101 kPa
Conditions | viscosity [mPa·s]
x1 = 0.06 | 0.171
x1 = 0.13 | 0.24
x1 = 0.28 | 0.366
x1 = 0.58 | 0.81

CC(Cl)(Cl)Cl + CC(=O)CC(C)C
298.15 K, 101.33 kPa
Conditions | viscosity [mPa·s]
x2 = 0.0803 | 0.739
x2 = 0.1769 | 0.694
x2 = 0.2653 | 0.665
x2 = 0.3765 | 0.634
x2 = 0.4692 | 0.614
x2 = 0.5907 | 0.594
x2 = 0.7245 | 0.573
x2 = 0.8536 | 0.558

CC(Cl)(Cl)Cl + C[N+](=O)[O-]
298.15 K, 101.33 kPa
Conditions | viscosity [mPa·s]
x1 = 0.101 | 0.6114
x1 = 0.201 | 0.6128
x1 = 0.251 | 0.6165
x1 = 0.301 | 0.622
x1 = 0.351 | 0.6284
x1 = 0.4 | 0.6356
x1 = 0.451 | 0.6435
x1 = 0.5 | 0.6518
x1 = 0.55 | 0.6607
x1 = 0.551 | 0.6609
x1 = 0.6 | 0.6702
x1 = 0.65 | 0.6803
x1 = 0.651 | 0.6805
x1 = 0.7 | 0.6912
x1 = 0.749 | 0.703
x1 = 0.812 | 0.7202
x1 = 0.867 | 0.7375

CC(Cl)(Cl)Cl + Cc1ccc(C)cc1
303.15 K, 101 kPa
Conditions | viscosity [mPa·s]
x1 = 0.1341 | 0.6079
x1 = 0.2166 | 0.632
x1 = 0.3072 | 0.6566
x1 = 0.4291 | 0.6846
x1 = 0.5112 | 0.6988
x1 = 0.6202 | 0.7113
x1 = 0.69 | 0.7164
x1 = 0.7824 | 0.7206
x1 = 0.8403 | 0.7216
x1 = 0.9044 | 0.7226

CC(Cl)(Cl)Cl + CCCCCCC
303.15 K, 101 kPa
Conditions | viscosity [mPa·s]
x1 = 0.138 | 0.3932
x1 = 0.2468 | 0.4161
x1 = 0.355 | 0.442
x1 = 0.4494 | 0.4689
x1 = 0.5571 | 0.5061
x1 = 0.6233 | 0.5327
x1 = 0.7095 | 0.5716
x1 = 0.7857 | 0.6088
x1 = 0.8262 | 0.63
x1 = 0.9288 | 0.6849

CC(Cl)(Cl)Cl + CCC(C)=O
298.15 K, 101.33 kPa
Conditions | viscosity [mPa·s]
x1 = 0.098 | 0.4094
x1 = 0.201 | 0.438
x1 = 0.299 | 0.4678
x1 = 0.398 | 0.5001
x1 = 0.499 | 0.5361
x1 = 0.6 | 0.5757
x1 = 0.7 | 0.6196
x1 = 0.8 | 0.669
x1 = 0.9 | 0.7256

CCCC[N+](CCCC)(CCCC)CCCC.[OH-] + CC(=O)N(C)C
viscosity [mPa·s], 101 kPa
Conditions | 298.15 K | 303.15 K | 308.15 K | 313.15 K
x1 = 0.0124 | 1.15 | 1.05 | 0.97 | 0.9
x1 = 0.0388 | 1.63 | 1.47 | 1.38 | 1.23
x1 = 0.0678 | 2.15 | 1.97 | 1.81 | 1.64
x1 = 0.0996 | 2.67 | 2.47 | 2.25 | 2.06
x1 = 0.1348 | 3.16 | 2.96 | 2.7 | 2.49
x1 = 0.1538 | 3.44 | 3.22 | 2.96 | 2.71
x1 = 0.1951 | 3.94 | 3.74 | 3.48 | 3.21
x1 = 0.2666 | 4.74 | 4.48 | 4.21 | 3.94
x1 = 0.3529 | 5.43 | 5.15 | 4.9 | 4.62
x1 = 0.4589 | 6.02 | 5.73 | 5.48 | 5.21
x1 = 0.5925 | 6.45 | 6.2 | 5.97 | 5.73
x1 = 0.7026 | 6.63 | 6.37 | 6.14 | 5.93
x1 = 0.8358 | 6.66 | 6.42 | 6.19 | 5.99

O=C(O)CC(O)(CC(=O)O)C(=O)O + C[N+](C)(C)CCO.[Cl-]
viscosity [mPa·s], x2 = 0.5
Conditions | 298 K | 303 K | 313 K | 323 K
101 kPa | – | 2085000 | 510000 | –
101.3 kPa | 14480 | – | – | 2242

CC(Cl)(Cl)Cl + CCCCCCCC
303.15 K, 101 kPa
Conditions | viscosity [mPa·s]
x1 = 0.1465 | 0.4786
x1 = 0.2573 | 0.4863
x1 = 0.3398 | 0.495
x1 = 0.4029 | 0.503
x1 = 0.4971 | 0.5195
x1 = 0.588 | 0.5408
x1 = 0.6617 | 0.5623
x1 = 0.7875 | 0.6103
x1 = 0.8238 | 0.6267
x1 = 0.9164 | 0.6735

From the CheMixHub viscosity set
